“And” between values parts separate entries of the source, which are not always exact repeats. Equal entries are not always repeated. Each block holds one compound with its values, some of them ahead of it.
System: 362531-283-R-J2-PDC complex spheroid viability
Test: Anticancer human tumor 362531-283-R-J2-PDC patient-derived colon adenocarcinoma cell line growth inhibition [RAS]
Conditions: for viability, T/C: stronger effect = lower value
From the text: RAS pathway inhibitors in Combinations in Complex Spheroids
A high-throughput screen of multi-cell type tumor spheroids was designed to identify active combinations of RAS pathway inhibitors and targeted small molecules. Complex spheroids include a stromal component modeled by human endothelial cells (HUVEC) and fibroblasts modeled by human mesenchymal stem cells (MSCs). The concentration ranges selected for each drug and investigational agent were based upon clinically achievable concentrations if the clinical Cmax of the agent was known.
Compounds. The drugs and investigational agents: abemaciclib (NSC768073), cobimetinib (NSC768068), divarasib (GDC6063, NSC841802), docetaxel (NSC628503), GDC-1971 (RLY-1971, NSC841576), gemcitabine (NSC613327), inavolisib (NSC800729), ipatasertib (NSC767898), KB-0742 (NSC834161), MRTX-1133 (NSC836407), osimertinib (NSC779217), RMC-4630 (NSC839698), RMC-6236 (NSC851965), RMC-6291 (NSC852671), Ro-3306 (NSC812927), sapanisertib (NSC764658), SN-38 (NSC673596), staurosporine (NSC755774), SY5609 (NSC837396), and tovorafenib (DAY101, NSC766906), were obtained from the National Cancer Institute (NCI) Developmental Therapeutics Program Chemical Repository. The FDA-approved anticancer drug set is available from the NCI Developmental Therapeutics Program. […] The stock solutions were prepared in dimethyl sulfoxide (DMSO, Sigma-Aldrich, St. Louis, MO, cat. D2650) at 800-fold the tested concentration and stored at -70 degrees C prior to their use. All drugs and investigational agents were tested over a range starting from a high concentration at or near the clinical Cmax and decreasing in half-log increments. If the clinical Cmax for an agent had not been determined, the highest concentration tested was 10 microM.
Cell Culture. All cells were maintained in an incubator at 37 degrees C and 5% CO2 with 95% humidity. The PDC lines were cultured according to standard operating procedures established by the NCI PDMR. All PDCs were thawed and cultured in Matrigel-coated flasks prepared with a working solution of 1X Ham's F-12 nutrient mix, without supplementation (Invitrogen, Waltham, MA, cat. 11765054), 100 U/mL penicillin-streptomycin (Invitrogen, cat. 15140122), and 2.5% Matrigel (Corning Inc., Corning, NY, cat. 354248) for the first three passages. The 362531-283-R-J2-PDC and 782815-120-R-J1-PDC lines were cultured in 6C/Colon 1B media, which includes advanced DMEM/F-12 (Thermo Fisher Scientific, cat. 12634028), 10 mM HEPES (Thermo Fisher Scientific, cat. 15630080), 1X GlutaMAX supplement (Thermo Fisher Scientific, cat. 35050061), 0.1 mg/mL primocin (InvivoGen, San Diego, CA, cat. ant-pm-2), 10% defined fetal bovine serum, heat inactivated (HyClone Laboratories Inc., Logan, UT, cat. SH30070.03HI), 50% L-WRN conditioned media (ATCC, cat. CRL-3276), 1.25 mM N-Acetyl-L-cysteine (Sigma-Aldrich, cat. A9165), 10 mM nicotinamide (Sigma-Aldrich, cat. N0636), 1X B-27 supplement (Thermo Fisher Scientific, cat. 17504044), 1X N-2 supplement (Thermo Fisher Scientific, cat. 17502048), 50 ng/mL human EGF (Thermo Fisher Scientific, cat. PHG0311), and 10 microM Y-27632 dihydrochloride (Tocris Bioscience, cat. 1254). The K12877-001-R-J1-PDC line was cultured in 6I media, which includes all 6C/Colon 1B media plus 10 ng/mL human FGF-10 (PeproTech, cat. 100-26), 1 ng/mL human FGF-2 (PeproTech, cat. 100-18B), 1 µM prostaglandin E2 (Tocris Bioscience, cat. 2296), […] hydrocortisone (Sigma-Aldrich, cat. H4001), and […] bovine insulin (Sigma-Aldrich, cat. I6634). The K86415-001-R-J1-PDC line was cultured in 6D media, which includes all 6C/Colon 1B media components minus the L-WRN conditioned media. The 485176-168-R4-J1-PDC was cultured in PANC media, which includes all 6C/Colon 1B media plus 100 ng/mL human FGF-10 (PeproTech, cat. 100-26), 500 nM SB-431542 (Selleckchem, cat. S1067), and 10 nM gastrin (Tocris Bioscience, cat. 3006). […]
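Note: spheroids exposed to the agents for 7 days before readout.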
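Throughout, for viability, T/C: luminescence viability as percent of DMSO vehicle control wells.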

IC50 (curve of first compound, second compound 0.000949 µM): > 0.3 µM | IC50 (curve of first compound, second compound 0.003 µM): > 0.3 µM | IC50 (curve of first compound, second compound 0.00949 µM): > 0.3 µM | IC50 (curve of first compound, second compound 0.03 µM): > 0.3 µM | IC50 (curve of first compound, second compound 0.0949 µM): > 0.3 µM | IC50 (curve of first compound, second compound 0.3 µM): > 0.3 µM
SMILES: CC1(C)CCC(Nc2ncc(C(F)(F)F)c(-c3c[nH]c4c(P(C)(C)=O)c(C#N)ccc34)n2)CN1 (centres undefined) + CCn1c(-c2cccnc2C(C)OC)c2c3cc(ccc31)N1CCOC(CC(NC(=O)C(C(C)C)N(C)C(=O)C3(F)CCN(C(=O)C#CC(C)(C)N(C)C)CC3)C(=O)N3CCCC(N3)C(=O)OCC(C)(C)C2)C1
viability, T/C (second compound 0.000949 µM, first compound 0.000949 µM): 105% | viability, T/C (second compound 0.000949 µM, first compound 0.003 µM): 99.2% | viability, T/C (second compound 0.000949 µM, first compound 0.00949 µM): 102% | viability, T/C (second compound 0.000949 µM, first compound 0.03 µM): 98.3% | viability, T/C (second compound 0.000949 µM, first compound 0.0949 µM): 108% | viability, T/C (second compound 0.000949 µM, first compound 0.3 µM): 99.1% | viability, T/C (second compound 0.003 µM, first compound 0.000949 µM): 110% | viability, T/C (second compound 0.003 µM, first compound 0.003 µM): 99.3% | viability, T/C (second compound 0.003 µM, first compound 0.00949 µM): 98% | viability, T/C (second compound 0.003 µM, first compound 0.03 µM): 92.6% | viability, T/C (second compound 0.003 µM, first compound 0.0949 µM): 107% | viability, T/C (second compound 0.003 µM, first compound 0.3 µM): 89.1% | viability, T/C (second compound 0.00949 µM, first compound 0.000949 µM): 97.5% | viability, T/C (second compound 0.00949 µM, first compound 0.003 µM): 102% | viability, T/C (second compound 0.00949 µM, first compound 0.00949 µM): 87.3% | viability, T/C (second compound 0.00949 µM, first compound 0.03 µM): 105% | viability, T/C (second compound 0.00949 µM, first compound 0.0949 µM): 102% | viability, T/C (second compound 0.00949 µM, first compound 0.3 µM): 104% | viability, T/C (second compound 0.03 µM, first compound 0.000949 µM): 98.5% | viability, T/C (second compound 0.03 µM, first compound 0.003 µM): 110% | viability, T/C (second compound 0.03 µM, first compound 0.00949 µM): 95.9% | viability, T/C (second compound 0.03 µM, first compound 0.03 µM): 98.9% | viability, T/C (second compound 0.03 µM, first compound 0.0949 µM): 100% | viability, T/C (second compound 0.03 µM, first compound 0.3 µM): 91.3% | viability, T/C (second compound 0.0949 µM, first compound 0.000949 µM): 86.8% | viability, T/C (second compound 0.0949 µM, first compound 0.003 µM): 99.5% | viability, T/C (second compound 0.0949 µM, first compound 0.00949 µM): 103% | viability, T/C (second compound 0.0949 µM, first compound 0.03 µM): 95.2% | viability, T/C (second compound 0.0949 µM, first compound 0.0949 µM): 103% | viability, T/C (second compound 0.0949 µM, first compound 0.3 µM): 107% | viability, T/C (second compound 0.3 µM, first compound 0.000949 µM): 96.8% | viability, T/C (second compound 0.3 µM, first compound 0.003 µM): 102% | viability, T/C (second compound 0.3 µM, first compound 0.00949 µM): 94.1% | viability, T/C (second compound 0.3 µM, first compound 0.03 µM): 98.5% | viability, T/C (second compound 0.3 µM, first compound 0.0949 µM): 101% | viability, T/C (second compound 0.3 µM, first compound 0.3 µM): 94.9%

IC50 (curve of compound): > 10 µM and 6.07 µM and 8.41 µM
SMILES: NC1c2ccccc2OC12CCN(c1cnc3c(N4CCCc5ncccc54)n[nH]c3n1)CC2 (centres undefined)
viability, T/C (compound 0.0316 µM): 95.1% [middle of 4 runs] | viability, T/C (compound 0.1 µM): 90% [middle of 4 runs] | viability, T/C (compound 0.316 µM): 85.3% [middle of 4 runs] | viability, T/C (compound 1 µM): 76.1% [middle of 4 runs] | viability, T/C (compound 3.16 µM): 68.5% [middle of 4 runs] | viability, T/C (compound 10 µM): 49.4% [middle of 4 runs]

IC50 (curve of compound): > 1 µM
SMILES: CCN1CCN(Cc2ccc(Nc3ncc(F)c(-c4cc(F)c5nc(C)n(C(C)C)c5c4)n3)nc2)CC1
viability, T/C (compound 0.00316 µM): 100% (2×) and 99.6% and 106% | viability, T/C (compound 0.01 µM): 95.9% [middle of 4 runs] | viability, T/C (compound 0.1 µM): 79.9% [middle of 4 runs] | viability, T/C (compound 0.316 µM): 65.4% [middle of 4 runs]

Source: PubChem BioAssay AID2060909 (Molecular Pharmacology Branch, DTP, NCI, 2025)
